From the Kinase Knowledgebase extract (Sharma et al. 2016)

Molecular target: MAPK14 (UniProt Q16539)
Experiment: Assessment of MAPK14 Kinase Activity Using Spectrophotometric Assay
Details: for inhibition: concentration not given here

Sequence of MAPK14 (Q16539 whole entry, looked up): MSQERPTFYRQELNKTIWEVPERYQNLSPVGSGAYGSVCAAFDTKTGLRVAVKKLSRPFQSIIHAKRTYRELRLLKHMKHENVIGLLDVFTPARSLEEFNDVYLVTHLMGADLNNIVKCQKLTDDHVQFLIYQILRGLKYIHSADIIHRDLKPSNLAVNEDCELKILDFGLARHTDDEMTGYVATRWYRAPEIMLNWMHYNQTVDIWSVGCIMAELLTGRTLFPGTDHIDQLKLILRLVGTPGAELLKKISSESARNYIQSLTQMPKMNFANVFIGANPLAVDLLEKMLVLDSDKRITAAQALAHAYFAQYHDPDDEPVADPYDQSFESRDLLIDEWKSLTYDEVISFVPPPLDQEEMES

| Structure (SMILES) | IC50 [nM] | inhibition [%] |
| --- | --- | --- |
| CC(O)c1cc(-n2nc(C(C)(C)C)cc2NC(=O)Nc2cccc(Cl)c2Cl)cc2ccccc12 (centres undefined) | 150 | – |
| CN1C(=O)C(c2cccc(NC(=O)Nc3cc(C(C)(C)C)nn3-c3ccc4c(c3)CCN4S(C)(=O)=O)c2)C=C2C=NC=NC21 (centres undefined) | 28 | – |
| CC(C)(C)c1cc(NC(=O)N2=CC=C3C=CC=CC3=C2)n(n1)c4cccc(CCC(=O)O)c4 | – | 58 |
| CC(C)(C)c1cc(NC(=O)Nc2cccc(Cl)c2Cl)n(-c2ccc(CCC(=O)O)cc2)n1 | 14 | – |
| O=C(O)CCc1ccc(-n2nc(-c3cccs3)cc2NC(=O)Nc2cccc(Cl)c2Cl)cc1 | 30 | – |
| CC(C)(C)c1cc(NC(=O)Nc2cccc3c2C=NC3=O)n(-c2cccc(CC(N)=O)c2)n1 | 120 | – |
| CC(C)(C)c1cc(NC(=O)Nc2cccc(Cl)c2)n(-c2cccc(CN)c2)n1 | 110 | – |
| COc1cccc(-n2nc(C(C)(C)C)cc2NC(=O)Nc2cccc(Br)c2)c1 | 354 | – |
| NC(=O)Cc1cccc(-n2nc(C3CCCC3)cc2NC(=O)Nc2ccc(-c3cccc4c3C=NC4=O)cc2)c1 | – | 82 |
| CC(C)(C)c1cc(NC(=O)Nc2cccc(Cl)c2Cl)n(-c2cccc(CC(=O)O)c2)n1 | 22 | – |
| O=C(Nc1cccc(Cl)c1Cl)Nc1cc(-c2ccccc2F)nn1-c1ccc(CC(=O)N2CC[C@H](CO)C2)cc1 | 37 | – |
| CN1C(=O)C(c2cccc(NC(=O)Nc3cc(C(C)(C)C)nn3-c3ccc4c(c3)CCN4)c2)C=C2C=NC=NC21 (centres undefined) | 13 | – |
| CC(C)(C)c1cc(NC(=O)Nc2cccc(-c3ncccn3)c2)n(-c2cccc(CC(N)=O)c2)n1 | – | 57 |
| Cc1ccc(NC(=O)Nc2cc(C(C)(C)C)nn2-c2cccc(CC(N)=O)c2)cc1Nc1ncccn1 | – | 90 |
